Laboratory results reported in ChEMBL document CHEMBL1201862, “PubChem BioAssay data set” (2004).
The source made the active and inactive calls.

How the values were obtained:
Protein Rev = Protein Rev (Human immunodeficiency virus type 1 group M subtype B (isolate HXB2)(HIV-1), UniProt P04618); test: inhibitors of Rev binding to RRE RNA, dose response, biochemical, fluorescence polarization, HIV-1 (AID 434976); design: species or system Human immunodeficiency virus 1
[1] = target: Female germline-specific tumor suppressor gld-1 (Caenorhabditis elegans, UniProt Q17339); test: inhibitors of GLD-1 binding to TGE RNA, dose response, biochemical, fluorescence polarization, C. elegans (AID 2802);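 further: fluorescence polarization of labeled TGE RNA bound by purified gld-1 protein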
[2] = target: T1, RNA-binding protein pos-1 (Caenorhabditis elegans, UniProt G5EF15); test: inhibitors of POS-1/mex-3 RNA binding, dose response, biochemical, fluorescence polarization (AID 1964);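 further: purified POS-1 fused to maltose binding protein made in E. coli; potency of compounds blocking POS-1 binding to fluorescent RNA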
T1 sequence (G5EF15 whole entry): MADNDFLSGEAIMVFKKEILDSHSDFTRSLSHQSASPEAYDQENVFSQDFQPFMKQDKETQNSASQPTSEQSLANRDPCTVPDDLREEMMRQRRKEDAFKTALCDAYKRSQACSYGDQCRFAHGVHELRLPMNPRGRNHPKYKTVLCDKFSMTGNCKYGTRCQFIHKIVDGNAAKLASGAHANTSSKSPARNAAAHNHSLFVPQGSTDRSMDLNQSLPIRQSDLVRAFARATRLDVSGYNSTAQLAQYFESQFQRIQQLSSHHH

[3] = target: T2, Zinc finger protein mex-5 (Caenorhabditis elegans, UniProt Q9XUB2); test: MEX-5/TCR-2 RNA interaction inhibitors, dose response, biochemical, C. elegans, fluorescence polarization (AID 1960)
T2 sequence (Q9XUB2 whole entry): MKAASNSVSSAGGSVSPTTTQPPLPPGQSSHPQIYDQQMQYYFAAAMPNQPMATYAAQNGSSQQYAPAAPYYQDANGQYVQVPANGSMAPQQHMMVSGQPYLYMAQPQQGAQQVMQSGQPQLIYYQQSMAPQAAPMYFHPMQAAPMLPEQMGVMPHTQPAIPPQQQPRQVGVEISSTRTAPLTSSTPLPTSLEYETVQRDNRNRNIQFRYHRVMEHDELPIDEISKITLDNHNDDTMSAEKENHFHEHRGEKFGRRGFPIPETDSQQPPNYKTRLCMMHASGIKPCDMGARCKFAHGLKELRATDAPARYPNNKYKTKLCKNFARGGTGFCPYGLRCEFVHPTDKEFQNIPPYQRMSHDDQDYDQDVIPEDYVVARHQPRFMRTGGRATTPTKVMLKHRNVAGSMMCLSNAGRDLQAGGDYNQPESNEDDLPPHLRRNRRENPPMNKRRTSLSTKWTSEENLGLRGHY

[4] = target: Neurotensin receptor type 1 (Homo sapiens, UniProt P30989); assay type: functional;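 further: Image-based confirmatory dose-response assay measuring agonist activity at NTR1; NTR1-expressing U2OS osteosarcoma cells imaged for beta-arrestin GFP spot formation; agonist potency where compounds increase beta-arrestin recruitment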
[5] = Shn3 3'UTR reporter inhibitors, dose response, cell-based, Clone20 osteoblasts, firefly luciferase, cherry-picked (AID 624132); assay type: functional;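 further: firefly luciferase luminescence from reporter carrying the Shn3 3'UTR in osteoblasts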
[6] = target: Dual specificity protein phosphatase 3 (Homo sapiens, UniProt P51452); test: VHR1 inhibitor Ki determination, SAR follow-up, biochemical, colorimetric (AID 2004)
X-box-binding protein 1 = X-box-binding protein 1 (Homo sapiens, UniProt P17861); assay type: functional, Cricetulus griseus;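 further: confirmatory dose-response counter-screen serving a CHOP assay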
[7] = target: T3, Kappa-type opioid receptor (Homo sapiens, UniProt P41145); test: SAR analysis of small molecule agonists of the kappa opioid receptor via a luminescent beta-arrestin assay. [Related pubchem assays (depositor defined):AID1777, AID1786, AID1966, AID2133, AID2136, AID2348, AID2352, AID2357, AID2359, AID2370, AID2420, AID2478, AID2491, AID2492, AID2493, AID2497, AID2498, AID2500, AID449737, AID488822, AID488842]; assay type: functional
Mu-type opioid receptor [8] = target: T4, Mu-type opioid receptor (Homo sapiens, UniProt P35372); test: MOR agonists by imaging, SAR follow-up, image-based (AID 2352); assay type: functional
[9] = target: T5, Delta-type opioid receptor (Homo sapiens, UniProt P41143); test: DOR agonists, SAR follow-up, image-based (AID 2370); assay type: functional
[10] = target: T3, Kappa-type opioid receptor; test: KOR antagonists by imaging, SAR follow-up, image-based (AID 2348); assay type: functional
Mu-type opioid receptor [11] = target: T4, Mu-type opioid receptor; test: MOR antagonists, SAR follow-up, image-based (AID 2420); assay type: functional;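 further: compounds added before stimulation of receptor with agonist DAMGO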
[12] = target: T3, Kappa-type opioid receptor; test: KOR agonist analogs, imaging readout, SAR follow-up, image-based (AID 2359); assay type: functional
[13] = target: T5, Delta-type opioid receptor; test: DOR antagonists, SAR follow-up, image-based (AID 2357); assay type: functional
[14] = target: Melanin-concentrating hormone receptor 1 (Homo sapiens, UniProt Q99705); test: Late-stage fluorescence-based counterscreen for antagonists of the G-protein coupled receptor 7 (GPR7): cell-based dose response assay to identify antagonists of the melanin-concentrating hormone receptor 1 (MCHR1). [Related pubchem assays (depositor defined):AID1861, AID1880, AID1952, AID2148, AID2251, AID2257, AID485339]; assay type: functional;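 further: stimulated with 30 nM MCH peptide agonist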
[15] = target: Neuropeptides B/W receptor type 1 (Homo sapiens, UniProt P48145); test: GPR7 antagonist potency, late-stage follow-up, cell-based, fluorescence, dose response (AID 463251); assay type: functional
Chain of Neuropeptides B/W receptor type 1 (P48145 whole entry): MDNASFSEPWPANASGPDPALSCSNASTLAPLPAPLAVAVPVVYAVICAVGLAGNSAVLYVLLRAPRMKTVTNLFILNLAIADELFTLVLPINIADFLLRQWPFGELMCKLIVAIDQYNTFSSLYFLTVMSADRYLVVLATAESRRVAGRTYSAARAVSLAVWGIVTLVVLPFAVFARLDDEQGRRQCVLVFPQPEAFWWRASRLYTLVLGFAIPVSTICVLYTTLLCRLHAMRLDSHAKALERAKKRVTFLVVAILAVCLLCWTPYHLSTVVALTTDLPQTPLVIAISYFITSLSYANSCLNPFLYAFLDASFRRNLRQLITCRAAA

T3 sequence (P41145 whole entry): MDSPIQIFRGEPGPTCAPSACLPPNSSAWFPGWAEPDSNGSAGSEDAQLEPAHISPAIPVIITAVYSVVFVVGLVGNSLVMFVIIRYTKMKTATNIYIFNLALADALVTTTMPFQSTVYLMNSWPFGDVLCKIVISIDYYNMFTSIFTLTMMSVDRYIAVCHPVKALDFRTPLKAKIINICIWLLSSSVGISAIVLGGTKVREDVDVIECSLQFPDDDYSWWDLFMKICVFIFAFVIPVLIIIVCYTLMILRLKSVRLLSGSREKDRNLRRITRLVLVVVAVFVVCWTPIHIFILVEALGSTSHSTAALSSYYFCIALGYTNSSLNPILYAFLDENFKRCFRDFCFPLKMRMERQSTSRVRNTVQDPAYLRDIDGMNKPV
T4 sequence (P35372 whole entry): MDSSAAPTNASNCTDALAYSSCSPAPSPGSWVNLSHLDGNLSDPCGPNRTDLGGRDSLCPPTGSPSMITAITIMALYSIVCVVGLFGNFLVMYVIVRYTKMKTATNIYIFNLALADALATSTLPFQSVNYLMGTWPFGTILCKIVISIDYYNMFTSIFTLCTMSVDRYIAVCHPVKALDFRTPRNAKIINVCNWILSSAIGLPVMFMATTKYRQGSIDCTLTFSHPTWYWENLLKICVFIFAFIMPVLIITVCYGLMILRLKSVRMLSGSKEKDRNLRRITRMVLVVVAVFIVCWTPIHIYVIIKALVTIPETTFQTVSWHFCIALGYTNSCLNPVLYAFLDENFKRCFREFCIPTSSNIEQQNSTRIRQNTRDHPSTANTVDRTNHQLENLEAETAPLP
T5 sequence (P41143 whole entry): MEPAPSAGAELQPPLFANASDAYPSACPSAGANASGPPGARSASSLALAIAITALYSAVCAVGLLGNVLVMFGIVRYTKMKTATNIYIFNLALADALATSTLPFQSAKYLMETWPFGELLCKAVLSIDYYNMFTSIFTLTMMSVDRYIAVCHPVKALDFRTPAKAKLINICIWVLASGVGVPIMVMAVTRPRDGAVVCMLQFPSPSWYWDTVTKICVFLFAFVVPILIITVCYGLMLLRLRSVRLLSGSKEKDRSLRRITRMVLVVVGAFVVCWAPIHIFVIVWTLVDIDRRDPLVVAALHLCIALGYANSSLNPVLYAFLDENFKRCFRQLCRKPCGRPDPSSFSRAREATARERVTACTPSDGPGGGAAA
Chain of Melanin-concentrating hormone receptor 1 (Q99705 whole entry): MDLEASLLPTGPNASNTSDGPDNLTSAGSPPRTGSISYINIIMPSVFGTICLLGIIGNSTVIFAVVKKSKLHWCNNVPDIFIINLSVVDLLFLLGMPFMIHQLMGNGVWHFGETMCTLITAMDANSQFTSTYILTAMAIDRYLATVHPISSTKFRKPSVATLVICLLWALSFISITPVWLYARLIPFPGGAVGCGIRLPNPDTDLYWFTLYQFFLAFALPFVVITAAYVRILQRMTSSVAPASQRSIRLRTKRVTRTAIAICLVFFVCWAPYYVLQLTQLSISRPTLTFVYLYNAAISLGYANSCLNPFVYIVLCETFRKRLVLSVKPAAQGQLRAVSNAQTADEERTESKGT
Chain of Protein Rev (P04618 whole entry): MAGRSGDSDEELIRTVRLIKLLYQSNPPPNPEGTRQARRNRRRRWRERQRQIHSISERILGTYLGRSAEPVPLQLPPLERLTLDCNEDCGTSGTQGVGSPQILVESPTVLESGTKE
Chain of Female germline-specific tumor suppressor gld-1 (Q17339 whole entry, the tested form may be a part): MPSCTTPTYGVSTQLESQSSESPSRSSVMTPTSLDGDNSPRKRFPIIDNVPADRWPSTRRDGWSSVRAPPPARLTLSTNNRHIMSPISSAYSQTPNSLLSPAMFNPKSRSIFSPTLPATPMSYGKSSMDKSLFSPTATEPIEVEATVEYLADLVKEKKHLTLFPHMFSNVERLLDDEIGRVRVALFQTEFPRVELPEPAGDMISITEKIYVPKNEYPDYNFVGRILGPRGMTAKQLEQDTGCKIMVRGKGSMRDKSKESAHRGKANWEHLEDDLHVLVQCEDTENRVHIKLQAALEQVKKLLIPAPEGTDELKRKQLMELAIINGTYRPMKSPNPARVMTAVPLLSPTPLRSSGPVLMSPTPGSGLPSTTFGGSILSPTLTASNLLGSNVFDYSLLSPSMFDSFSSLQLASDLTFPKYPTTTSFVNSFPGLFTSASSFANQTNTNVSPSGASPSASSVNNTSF
Chain of Dual specificity protein phosphatase 3 (P51452 whole entry): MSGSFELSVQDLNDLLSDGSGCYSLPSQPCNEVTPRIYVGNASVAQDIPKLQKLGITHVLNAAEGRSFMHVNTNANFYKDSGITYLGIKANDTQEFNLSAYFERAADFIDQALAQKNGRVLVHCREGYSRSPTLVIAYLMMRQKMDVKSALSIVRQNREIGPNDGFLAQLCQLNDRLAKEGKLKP
Chain of X-box-binding protein 1 (P17861 whole entry): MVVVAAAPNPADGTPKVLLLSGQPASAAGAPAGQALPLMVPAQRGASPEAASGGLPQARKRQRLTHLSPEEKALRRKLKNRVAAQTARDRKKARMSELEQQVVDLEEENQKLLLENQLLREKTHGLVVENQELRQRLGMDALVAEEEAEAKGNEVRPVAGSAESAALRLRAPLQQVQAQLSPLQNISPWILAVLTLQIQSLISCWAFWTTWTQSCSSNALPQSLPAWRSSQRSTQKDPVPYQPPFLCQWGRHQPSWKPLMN
Chain of Neurotensin receptor type 1 (P30989 whole entry): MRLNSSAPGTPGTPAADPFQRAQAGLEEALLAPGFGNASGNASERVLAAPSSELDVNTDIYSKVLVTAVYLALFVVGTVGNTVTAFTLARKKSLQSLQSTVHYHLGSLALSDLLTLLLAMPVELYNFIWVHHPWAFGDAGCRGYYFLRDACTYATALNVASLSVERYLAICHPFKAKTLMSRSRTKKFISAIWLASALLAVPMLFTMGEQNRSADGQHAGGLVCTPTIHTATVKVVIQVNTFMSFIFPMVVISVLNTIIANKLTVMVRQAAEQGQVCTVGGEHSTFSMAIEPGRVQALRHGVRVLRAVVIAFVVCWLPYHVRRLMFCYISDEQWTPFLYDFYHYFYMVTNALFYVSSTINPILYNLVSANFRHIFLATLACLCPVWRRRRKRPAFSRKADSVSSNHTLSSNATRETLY

## O=C(CN1C(=O)C2CC=C(Cl)CC2C1=O)NCc1ccccc1 (configuration not stated)
Protein Rev
  IC50: 25.8 µM (not active)
[1]
  IC50: 7.72 µM (active)
[2]
  EC50: 34.1 µM (active)
[3]
  EC50: 24.7 µM (active)

## CCOc1cc(/C=C2\C(=O)ON=C2C)ccc1OCc1ccccc1
[4]
  EC50: 13.9 µM (active)
[5]
  AC50: 10.4 µM (active)

## COc1cccc(/C=C2/C(=O)NC(=O)N(c3cccc(C)c3)C2=O)c1O
[6]
  Ki: 33.1 µM (inactive)

## Cc1sc2ncnc(N3CCCCC3C)c2c1C (configuration not stated)
X-box-binding protein 1
  Absolute IC50 (XBP1): 10 µM

## CCCN(Cc1cc2ccc(C)cc2[nH]c1=O)C(=O)c1ccccn1
[7]
  EC50: > 10 µM (inactive)
Mu-type opioid receptor [8]
  EC50: > 32 µM (inactive)
[9]
  EC50: > 32 µM (inactive)
[10]
  IC50: > 32 µM (inactive)
Mu-type opioid receptor [11]
  IC50: > 32 µM (inactive)
[12]
  EC50: > 32 µM (inactive)
[13]
  IC50: > 32 µM (inactive)

## COc1cc(OC)cc(Oc2c(Cl)cnn(-c3ccc(C(C)C)cc3)c2=O)c1
[14]
  IC50: 10.5 µM (inactive)
[15]
  IC50: 8.2 µM (active)
